Experimental data as given in ChEMBL document CHEMBL1201862, “PubChem BioAssay data set” (2004).
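Method: 48-hour compound exposure of cells in 96-well plates, five concentrations, linear interpolation of endpoints. The concentration for 50% growth inhibition is given as GI50.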 The source made the active and inactive calls. Rule as the data show it: active = GI50 up to about 1.1 µM and inactive = higher.

Columns and labels:
Assay in all cases: DTP human tumour cell line panel, 48 h
A549 = tested on: A549
ACHN = tested on: ACHN
EKVX = tested on: EKVX
K562 = tested on: K562
M14 = tested on: M14
Malme-3M = tested on: Malme-3M
NCI-H226 = tested on: NCI-H226
OVCAR-4 = tested on: OVCAR-4
OVCAR-8 = tested on: OVCAR-8
SF-268 = tested on: SF-268
SF-295 = tested on: SF-295
SNB-19 = tested on: SNB-19
SW-620 = tested on: SW-620
UACC-62 = tested on: UACC-62
XF498 = tested on: XF498
CAKI-1 = tested on: CAKI-1
BT-549 = tested on: BT-549
MCF7 = tested on: MCF7
MDA-N = tested on: MDA-N
T47D = tested on: T47D

| Structure (SMILES) | GI50 (A549) | GI50 (ACHN) | GI50 (EKVX) | GI50 (K562) | GI50 (M14) | GI50 (Malme-3M) | GI50 (NCI-H226) | GI50 (OVCAR-4) | GI50 (OVCAR-8) | GI50 (SF-268) | GI50 (SF-295) | GI50 (SNB-19) | GI50 (SW-620) | GI50 (UACC-62) | GI50 (XF498) | GI50 (CAKI-1) | GI50 (BT-549) | GI50 (MCF7) | GI50 (MDA-N) | GI50 (T47D) |
| --- | --- | --- | --- | --- | --- | --- | --- | --- | --- | --- | --- | --- | --- | --- | --- | --- | --- | --- | --- | --- |
| COc1ccc(-c2cc(O)c3ccc(F)cc3n2)cc1 | > 100 µM (inactive) | > 100 µM (inactive) | > 100 µM (inactive) | > 100 µM (inactive) | > 100 µM (inactive) | > 100 µM (inactive) | > 100 µM (inactive) | > 100 µM (inactive) | > 100 µM (inactive) | 23.5 µM (inactive) | > 100 µM (inactive) | > 100 µM (inactive) | > 100 µM (inactive) | > 100 µM (inactive) | > 100 µM (inactive) |  |  |  |  |  |
| CCCCCC(O)(CCCCC)CCCCCCCCC1=C(O)C(=O)c2ccc(=O)[nH]c2C1=O | 5.41 µM (inactive) | 6.37 µM (inactive) | 13.4 µM (inactive) | 5.07 µM (inactive) | 10 µM (inactive) | 3.75 µM (inactive) | 8.36 µM (inactive) | 1.87 µM (inactive) | 9.06 µM (inactive) | 5.02 µM (inactive) | 4.37 µM (inactive) | 5.48 µM (inactive) | 8 µM (inactive) | 3.2 µM (inactive) | 3.6 µM (inactive) | 11.2 µM (inactive) |  |  |  |  |
| CCCCCCCCCCCCCCCCCCCCCC(=O)Nc1ccn(C2OC(CO)C(O)C2O)c(=O)n1 (configuration not stated) | 4.68 µM (inactive) | 5.2 µM (inactive) | > 100 µM (inactive) | > 50.6 µM (inactive) | 4.91 µM (inactive) | > 42.4 µM (inactive) | > 100 µM (inactive) | > 100 µM (inactive) | 12.4 µM (inactive) | 18.4 µM (inactive) | > 84.3 µM (inactive) | > 57 µM (inactive) | > 57.4 µM (inactive) | 33.6 µM (inactive) | > 100 µM (inactive) | > 31.6 µM (inactive) |  |  |  |  |
| NC(=S)N1N=C2c3ccccc3CCC[C@H]2[C@@H]1c1ccccc1 | 1.52 µM (inactive) | 5.07 µM (inactive) | 9.23 µM (inactive) | 0.284 µM (active) | 0.315 µM (active) | 0.488 µM (active) | 2.6 µM (inactive) | 5 µM (inactive) | 3.2 µM (inactive) | 3 µM (inactive) | 1.03 µM (active) | 1.37 µM (inactive) | 0.385 µM (active) |  | 4.55 µM (inactive) |  | 0.406 µM (active) | 0.472 µM (active) | 0.0531 µM (active) | 10 µM (inactive) |
| O=C(Cc1nc2c3c(ccc2nc1O)C(=O)c1ccccc1C3=O)C(=O)Nc1ccccc1[N+](=O)[O-] | 49.4 µM (inactive) | 15.7 µM (inactive) | 17.5 µM (inactive) | 12.6 µM (inactive) | 16.3 µM (inactive) | 19.1 µM (inactive) | 20.6 µM (inactive) | 13.2 µM (inactive) | 17.1 µM (inactive) | 14.4 µM (inactive) | > 10 µM (inactive) | 16.6 µM (inactive) | 12.3 µM (inactive) | 25.6 µM (inactive) | 12.6 µM (inactive) | 21.5 µM (inactive) |  |  |  |  |
| O=C(c1ccncc1)n1nc(-c2ccccc2)c(/N=N/c2ccccc2[N+](=O)[O-])c1-c1ccccc1 | 39.4 µM (inactive) |  | 9.04 µM (inactive) | 36.3 µM (inactive) | > 100 µM (inactive) | > 100 µM (inactive) |  | > 100 µM (inactive) | 56.1 µM (inactive) | 82 µM (inactive) | 32.1 µM (inactive) | 36.9 µM (inactive) | 67.3 µM (inactive) | 75.3 µM (inactive) | 33.5 µM (inactive) | 63.8 µM (inactive) |  |  |  |  |
| C[N+](C)(C)CC(CC(=O)[O-])C1CC1 (configuration not stated) | > 100 µM (inactive) | > 100 µM (inactive) | > 100 µM (inactive) | > 100 µM (inactive) | > 100 µM (inactive) | > 100 µM (inactive) |  | > 100 µM (inactive) | > 100 µM (inactive) | > 100 µM (inactive) | > 100 µM (inactive) | > 100 µM (inactive) | > 100 µM (inactive) | > 100 µM (inactive) | > 100 µM (inactive) | > 100 µM (inactive) |  |  |  |  |
| Cc1ccc(NC(=O)C(=O)CC(=O)C2CCOC2=O)c(C)c1 (configuration not stated) | > 100 µM (inactive) | > 100 µM (inactive) | > 100 µM (inactive) | > 100 µM (inactive) | > 100 µM (inactive) | > 100 µM (inactive) | > 100 µM (inactive) | > 100 µM (inactive) | > 100 µM (inactive) | > 100 µM (inactive) | > 100 µM (inactive) | > 100 µM (inactive) | > 100 µM (inactive) | > 100 µM (inactive) | > 100 µM (inactive) | > 100 µM (inactive) |  |  |  |  |
| COc1cc(C(O)C(=O)c2cnc3cc([N+](=O)[O-])ccc3n2)ccc1O (configuration not stated) | > 100 µM (inactive) | > 100 µM (inactive) | 72.3 µM (inactive) | > 100 µM (inactive) | > 100 µM (inactive) | > 100 µM (inactive) |  | > 100 µM (inactive) | > 100 µM (inactive) |  | > 100 µM (inactive) | > 100 µM (inactive) | > 100 µM (inactive) | 62.1 µM (inactive) | > 100 µM (inactive) | > 100 µM (inactive) |  |  |  |  |
| COc1cc(/C=C\c2ccc(Cl)cc2)cc(OC)c1OC | 0.196 µM (active) | 1.38 µM (inactive) | 0.439 µM (active) | 0.033 µM (active) | 0.0647 µM (active) | 0.184 µM (active) | 0.24 µM (active) | 5.74 µM (inactive) | 0.363 µM (active) | 0.843 µM (active) | 0.0331 µM (active) | 0.322 µM (active) | 0.0552 µM (active) | 0.0885 µM (active) | 0.274 µM (active) | 0.384 µM (active) |  |  |  |  |
| O=c1oc2c(O)c(O)cc3c(=O)oc4c(O)c(O)cc1c4c23 [ELLAGIC ACID] | 68.2 µM (inactive) | 45.8 µM (inactive) | 57.4 µM (inactive) | > 10 µM (inactive) | 18.5 µM (inactive) | > 10 µM (inactive) | 23.6 µM (inactive) | 31.6 µM (inactive) | 18.6 µM (inactive) | 56.5 µM (inactive) | > 10 µM (inactive) | 18.7 µM (inactive) | > 10 µM (inactive) | 40.8 µM (inactive) | 35.2 µM (inactive) | < 0.01 µM (active) |  |  |  |  |
